Legend:
[1] = test system: Liver microsome; experiment: Drug level in human liver microsomes treated with montelukast at 0.02 to 0.4 uM preincubated for 3 mins followed by beta-NADPH addition by LC-MS analysis; format: ADME
[2] = biological target: T1, Cytochrome P450 3A5 (Homo sapiens, UniProt P20815); experiment: Activity of recombinant human CYP3A5 expressed in microsomes isolated from baculovirus infected insect cell assessed as enzyme-mediated compound formation treated with montelukast at 1 uM after 60 mins by LC-MS analysis; format: ADME; conditions: 1 h
T1 sequence (P20815 whole entry): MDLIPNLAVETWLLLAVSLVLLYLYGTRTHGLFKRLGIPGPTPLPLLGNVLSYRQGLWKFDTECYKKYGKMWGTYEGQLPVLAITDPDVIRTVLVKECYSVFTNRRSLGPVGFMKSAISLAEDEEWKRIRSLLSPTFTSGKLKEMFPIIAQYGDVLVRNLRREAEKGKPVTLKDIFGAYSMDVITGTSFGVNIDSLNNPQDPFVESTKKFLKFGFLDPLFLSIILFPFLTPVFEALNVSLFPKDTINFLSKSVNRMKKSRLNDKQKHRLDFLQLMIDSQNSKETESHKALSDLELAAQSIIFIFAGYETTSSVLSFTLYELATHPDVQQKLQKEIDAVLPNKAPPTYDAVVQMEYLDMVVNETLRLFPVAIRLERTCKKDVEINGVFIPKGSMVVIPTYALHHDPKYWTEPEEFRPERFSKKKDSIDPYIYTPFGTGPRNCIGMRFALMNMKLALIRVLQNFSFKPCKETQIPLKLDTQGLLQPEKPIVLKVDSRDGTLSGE

[3] = biological target: T2, Cytochrome P450 2C8 (Homo sapiens, UniProt P10632); experiment: Activity of recombinant human CYP2C8 expressed in microsomes isolated from baculovirus infected insect cell assessed as enzyme-mediated compound formation treated with montelukast at 0.02 to 0.1 uM after 3 mins by LC-MS analysis; format: ADME; conditions: 0.05 h
T2 sequence (P10632 whole entry): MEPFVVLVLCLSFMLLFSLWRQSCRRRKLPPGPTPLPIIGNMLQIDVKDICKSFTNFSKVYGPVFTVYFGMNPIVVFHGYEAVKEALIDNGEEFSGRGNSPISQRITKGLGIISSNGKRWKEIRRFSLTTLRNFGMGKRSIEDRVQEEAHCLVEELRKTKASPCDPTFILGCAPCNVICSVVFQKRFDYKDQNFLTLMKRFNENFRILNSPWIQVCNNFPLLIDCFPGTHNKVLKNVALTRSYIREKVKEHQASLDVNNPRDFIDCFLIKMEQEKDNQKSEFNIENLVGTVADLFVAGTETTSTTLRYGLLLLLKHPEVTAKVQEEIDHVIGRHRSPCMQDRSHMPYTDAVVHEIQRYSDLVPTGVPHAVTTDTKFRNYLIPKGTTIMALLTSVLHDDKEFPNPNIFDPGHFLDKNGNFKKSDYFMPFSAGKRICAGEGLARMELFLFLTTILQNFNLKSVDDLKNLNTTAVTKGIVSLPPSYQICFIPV

[4] = biological target: T3, Cytochrome P450 2C19 (Homo sapiens, UniProt P33261); experiment: Activity of recombinant human CYP2C19 expressed in microsomes isolated from baculovirus infected insect cell assessed as enzyme-mediated compound formation treated with montelukast at 1 uM after 60 mins by LC-MS analysis; format: ADME; conditions: 1 h
T3 sequence (P33261 whole entry): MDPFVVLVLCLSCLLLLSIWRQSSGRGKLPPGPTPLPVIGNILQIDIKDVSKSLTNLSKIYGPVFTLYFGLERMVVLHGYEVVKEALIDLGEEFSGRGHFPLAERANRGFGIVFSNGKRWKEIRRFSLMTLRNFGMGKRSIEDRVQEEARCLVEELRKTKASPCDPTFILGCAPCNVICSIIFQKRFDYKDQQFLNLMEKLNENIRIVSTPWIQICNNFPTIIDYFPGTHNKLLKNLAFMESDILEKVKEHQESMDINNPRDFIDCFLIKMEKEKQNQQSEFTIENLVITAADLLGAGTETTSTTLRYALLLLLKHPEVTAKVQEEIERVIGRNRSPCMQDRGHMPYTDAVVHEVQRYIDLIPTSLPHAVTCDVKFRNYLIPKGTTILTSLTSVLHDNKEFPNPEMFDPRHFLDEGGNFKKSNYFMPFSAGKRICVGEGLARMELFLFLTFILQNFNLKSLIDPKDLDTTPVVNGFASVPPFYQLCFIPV

[5] = biological target: T4, Cytochrome P450 3A4 (Homo sapiens, UniProt P08684); experiment: Activity of recombinant human CYP3A4 expressed in microsomes isolated from baculovirus infected insect cell assessed as enzyme-mediated compound formation treated with montelukast at 1 uM after 60 mins by LC-MS analysis; format: ADME; conditions: 1 h
T4 sequence (P08684 whole entry): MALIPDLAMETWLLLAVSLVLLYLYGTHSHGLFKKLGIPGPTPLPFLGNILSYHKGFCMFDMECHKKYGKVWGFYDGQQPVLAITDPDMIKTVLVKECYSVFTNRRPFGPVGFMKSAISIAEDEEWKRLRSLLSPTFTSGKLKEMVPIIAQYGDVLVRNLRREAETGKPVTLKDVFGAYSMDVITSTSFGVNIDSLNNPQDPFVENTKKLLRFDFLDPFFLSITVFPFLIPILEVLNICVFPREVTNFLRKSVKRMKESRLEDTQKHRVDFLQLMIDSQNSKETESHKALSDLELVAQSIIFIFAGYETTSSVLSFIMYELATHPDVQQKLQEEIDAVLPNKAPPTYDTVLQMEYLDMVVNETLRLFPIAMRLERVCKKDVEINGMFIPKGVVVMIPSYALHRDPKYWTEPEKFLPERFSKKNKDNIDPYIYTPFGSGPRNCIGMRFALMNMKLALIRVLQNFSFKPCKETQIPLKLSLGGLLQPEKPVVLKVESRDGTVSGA

[6] = biological target: T2, Cytochrome P450 2C8; experiment: Activity of recombinant human CYP2C8 expressed in microsomes isolated from baculovirus infected insect cell assessed as enzyme-mediated compound formation treated with montelukast at 0.02 to 1 uM after 60 mins by LC-MS analysis; format: ADME; conditions: 1 h
[7] = biological target: T5, Cytochrome P450 2C9 (Homo sapiens, UniProt P11712); experiment: Activity of recombinant human CYP2C9 expressed in microsomes isolated from baculovirus infected insect cell assessed as enzyme-mediated compound formation treated with montelukast at 1 uM after 60 mins by LC-MS analysis; format: ADME; conditions: 1 h
[8] = biological target: T2, Cytochrome P450 2C8; experiment: Activity of recombinant human CYP2C8 expressed in microsomes isolated from baculovirus infected insect cell assessed as enzyme-mediated compound formation treated with 2-(1-(((1R)-1-(3-(2-(7-chloroquinolin-2-yl)vinyl)phenyl)-3-(2-(1,2-dihydroxypropan-2-yl)phenyl)propylthio)methyl)cyclopropyl)acetic acid at 0.02 uM after 30 mins by LC-MS analysis; format: ADME; conditions: 0.5 h
[9] = biological target: T1, Cytochrome P450 3A5; experiment: (§1) Activity of recombinant human CYP3A5 expressed in microsomes isolated from baculovirus infected insect cell assessed as enzyme-mediated 2-(2-((R)-3-((1-(carboxymethyl)cyclopropyl)methylthio)-3-(3-(2-(7-chloroquinolin-2-yl)vinyl)phenyl)propyl)phenyl)-2-hydroxypropanoic acid formation at 1 uM after 30 mins by LC-MS analysis; format: ADME; conditions: 0.5 h
[10] = biological target: T6, Cytochrome P450 1A2 (Homo sapiens, UniProt P05177); experiment: as §1, with “CYP1A2” for “CYP3A5”; format: ADME; conditions: 0.5 h
T6 sequence (P05177 whole entry): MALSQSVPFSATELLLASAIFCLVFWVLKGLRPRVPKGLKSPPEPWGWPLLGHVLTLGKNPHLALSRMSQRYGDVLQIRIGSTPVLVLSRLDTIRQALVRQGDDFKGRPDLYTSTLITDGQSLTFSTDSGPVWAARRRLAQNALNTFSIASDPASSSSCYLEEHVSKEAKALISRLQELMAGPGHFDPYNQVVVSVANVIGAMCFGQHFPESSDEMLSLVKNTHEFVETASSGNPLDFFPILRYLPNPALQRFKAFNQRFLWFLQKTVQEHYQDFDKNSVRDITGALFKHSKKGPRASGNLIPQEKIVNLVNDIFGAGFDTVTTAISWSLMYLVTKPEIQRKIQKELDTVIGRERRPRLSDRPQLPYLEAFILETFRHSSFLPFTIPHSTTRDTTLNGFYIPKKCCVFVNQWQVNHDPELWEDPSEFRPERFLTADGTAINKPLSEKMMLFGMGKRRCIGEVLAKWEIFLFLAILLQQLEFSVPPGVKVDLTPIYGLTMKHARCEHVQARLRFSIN

[11] = biological target: Cytochrome P450 2D6 (Homo sapiens, UniProt P10635); experiment: as §1, with “CYP2D6” for “CYP3A5”; format: ADME; conditions: 0.5 h
Sequence of Cytochrome P450 2D6 (P10635 whole entry): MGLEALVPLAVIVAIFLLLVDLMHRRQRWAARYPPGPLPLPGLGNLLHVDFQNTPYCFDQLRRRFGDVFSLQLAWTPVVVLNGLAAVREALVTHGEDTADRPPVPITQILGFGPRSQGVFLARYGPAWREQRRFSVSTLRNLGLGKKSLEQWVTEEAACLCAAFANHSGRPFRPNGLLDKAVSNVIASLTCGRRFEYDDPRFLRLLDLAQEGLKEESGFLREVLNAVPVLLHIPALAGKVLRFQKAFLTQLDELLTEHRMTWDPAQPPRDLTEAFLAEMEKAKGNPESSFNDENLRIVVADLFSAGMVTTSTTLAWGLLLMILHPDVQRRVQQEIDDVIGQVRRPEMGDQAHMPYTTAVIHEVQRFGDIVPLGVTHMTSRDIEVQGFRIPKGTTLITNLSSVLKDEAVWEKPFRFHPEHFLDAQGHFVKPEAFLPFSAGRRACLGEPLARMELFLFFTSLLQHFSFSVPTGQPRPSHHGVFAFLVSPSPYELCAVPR

[12] = biological target: T7, Cytochrome P450 2A6 (Homo sapiens, UniProt P11509); experiment: as §1, with “CYP2A6” for “CYP3A5”; format: ADME; conditions: 0.5 h
T7 sequence (P11509 whole entry): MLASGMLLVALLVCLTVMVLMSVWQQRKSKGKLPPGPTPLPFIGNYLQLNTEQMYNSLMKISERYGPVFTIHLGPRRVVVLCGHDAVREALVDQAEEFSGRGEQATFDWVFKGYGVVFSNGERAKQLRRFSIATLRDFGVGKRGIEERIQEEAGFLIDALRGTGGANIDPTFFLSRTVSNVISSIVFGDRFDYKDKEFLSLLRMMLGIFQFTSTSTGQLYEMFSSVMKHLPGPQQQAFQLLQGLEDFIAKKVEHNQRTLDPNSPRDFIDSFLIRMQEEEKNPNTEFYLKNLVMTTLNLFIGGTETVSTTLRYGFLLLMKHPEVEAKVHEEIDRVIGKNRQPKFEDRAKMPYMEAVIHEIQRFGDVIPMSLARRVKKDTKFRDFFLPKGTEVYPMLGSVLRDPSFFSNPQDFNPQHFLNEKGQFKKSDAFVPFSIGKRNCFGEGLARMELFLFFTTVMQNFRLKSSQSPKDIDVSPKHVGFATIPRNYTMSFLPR

[13] = biological target: T5, Cytochrome P450 2C9; experiment: as §1, with “human CYP2C9” for “human CYP3A5”, “at 0.02” for “at 1”; format: ADME; conditions: 0.5 h
[14] = biological target: T5, Cytochrome P450 2C9; experiment: Activity of recombinant human CYP2C9 expressed in microsomes isolated from baculovirus infected insect cell assessed as enzyme-mediated compound formation treated with montelukast at 0.02 to 0.1 uM after 12 mins by LC-MS analysis; format: ADME; conditions: 0.2 h
[15] = biological target: Cytochrome P450 2E1 (Homo sapiens, UniProt P05181); experiment: as §1, with “CYP2E1” for “CYP3A5”; format: ADME; conditions: 0.5 h
Sequence of Cytochrome P450 2E1 (P05181 whole entry): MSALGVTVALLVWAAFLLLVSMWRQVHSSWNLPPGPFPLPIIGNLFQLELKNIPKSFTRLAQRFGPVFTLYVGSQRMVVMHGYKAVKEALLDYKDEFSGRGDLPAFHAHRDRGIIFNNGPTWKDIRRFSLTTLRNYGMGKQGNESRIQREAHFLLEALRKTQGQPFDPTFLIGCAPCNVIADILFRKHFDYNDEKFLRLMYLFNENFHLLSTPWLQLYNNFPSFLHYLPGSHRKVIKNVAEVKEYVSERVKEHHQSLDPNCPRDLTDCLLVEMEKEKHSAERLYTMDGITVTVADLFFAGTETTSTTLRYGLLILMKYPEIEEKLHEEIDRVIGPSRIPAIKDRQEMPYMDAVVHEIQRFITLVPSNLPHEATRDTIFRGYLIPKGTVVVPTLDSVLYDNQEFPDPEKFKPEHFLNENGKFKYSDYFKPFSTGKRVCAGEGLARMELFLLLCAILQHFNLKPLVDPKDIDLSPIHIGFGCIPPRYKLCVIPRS

[16] = biological target: T3, Cytochrome P450 2C19; experiment: as §1, with “CYP2C19” for “CYP3A5”; format: ADME; conditions: 0.5 h
[17] = biological target: T4, Cytochrome P450 3A4; experiment: as §1, with “human CYP3A4” for “human CYP3A5”, “at 0.02” for “at 1”; format: ADME; conditions: 0.5 h
[18] = biological target: T8, Cytochrome P450 2B6 (Homo sapiens, UniProt P20813); experiment: as §1, with “CYP2B6” for “CYP3A5”; format: ADME; conditions: 0.5 h
T8 sequence (P20813 whole entry): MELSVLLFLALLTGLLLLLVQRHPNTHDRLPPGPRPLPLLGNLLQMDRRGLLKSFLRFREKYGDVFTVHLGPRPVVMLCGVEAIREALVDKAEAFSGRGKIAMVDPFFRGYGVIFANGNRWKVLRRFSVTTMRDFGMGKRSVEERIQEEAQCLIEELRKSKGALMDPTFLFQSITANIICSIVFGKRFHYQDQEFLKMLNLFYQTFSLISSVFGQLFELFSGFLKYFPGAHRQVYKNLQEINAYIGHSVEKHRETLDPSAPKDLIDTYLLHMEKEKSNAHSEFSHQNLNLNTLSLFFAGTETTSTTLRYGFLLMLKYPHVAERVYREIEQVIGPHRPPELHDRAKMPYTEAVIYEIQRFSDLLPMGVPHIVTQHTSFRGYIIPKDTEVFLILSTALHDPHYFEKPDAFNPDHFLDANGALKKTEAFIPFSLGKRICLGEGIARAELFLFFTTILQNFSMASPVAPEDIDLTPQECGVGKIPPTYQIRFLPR

[19] = biological target: T2, Cytochrome P450 2C8; experiment: as §1, with “human CYP2C8” for “human CYP3A5”, “at 0.02” for “at 1”; format: ADME; conditions: 0.5 h
[20] = substrate: CC(C)(O)c1ccccc1CC[C@@H](SCC1(CC(=O)O)CC1)c1cccc(/C=C/c2ccc3ccc(Cl)cc3n2)c1; experiment: cells, lysate or membranes named

Molecule | Drug metabolism [1] | Drug metabolism [2] | Drug metabolism [3] | Drug metabolism [5] | Drug metabolism [6] | Drug metabolism [7] | further results
CC(C)(O)c1ccccc1CC[C@H](c1cccc(/C=C/c2ccc3ccc(Cl)cc3n2)c1)[S+]([O-])CC1(CC(=O)O)CC1 (stereo not given in full) | metabolite_detected | – | – | – | – | – | –
CC(C)(O)c1cc(O)ccc1CC[C@@H](SCC1(CC(=O)O)CC1)c1cccc(/C=C/c2ccc3ccc(Cl)cc3n2)c1 | metabolite_detected | metabolite_detected | metabolite_detected | metabolite_detected | metabolite_detected | metabolite_detected | Drug metabolism [4]: metabolite_detected
CC(O)(C(=O)O)c1ccccc1CC[C@@H](SCC1(CC(=O)O)CC1)c1cccc(/C=C/c2ccc3ccc(Cl)cc3n2)c1 (stereo not given in full) | metabolite_detected | – | – | – | – | – | Drug metabolism [8]: metabolite_detected
CC(C)(O)c1ccccc1C(O)C[C@@H](SCC1(CC(=O)O)CC1)c1cccc(/C=C/c2ccc3ccc(Cl)cc3n2)c1 (stereo not given in full) | metabolite_detected | metabolite_detected | – | metabolite_detected | – | – | –
CC(O)(CO)c1ccccc1CC[C@@H](SCC1(CC(=O)O)CC1)c1cccc(/C=C/c2ccc3ccc(Cl)cc3n2)c1 (stereo not given in full) | metabolite_detected | – | metabolite_detected | – | metabolite_detected | metabolite_detected | Drug metabolism [9]: metabolite_not_detected; Drug metabolism [10]: metabolite_not_detected; Drug metabolism [11]: metabolite_not_detected; Drug metabolism [12]: metabolite_not_detected; Drug metabolism [13]: metabolite_not_detected; Drug metabolism [14]: metabolite_detected; Drug metabolism [15]: metabolite_not_detected; Drug metabolism [16]: metabolite_not_detected; Drug metabolism [17]: metabolite_not_detected; Drug metabolism [18]: metabolite_not_detected; Drug metabolism [19]: metabolite_detected
Cytochrome P450 2C9 (Homo sapiens) (protein) MDSLVVLVLCLSCLLLLSLWRQSSGRGKLPPGPTPLPVIGNILQIGIKDISKSLTNLSKVYGPVFTLYFGLKPIVVLHGYEAVKEALIDLGEEFSGRGIFPLAERANRGFGIVFSNGKKWKEIRRFSLMTLRNFGMGKRSIEDRVQEEARCLVEELRKTKASPCDPTFILGCAPCNVICSIIFHKRFDYKDQQFLNLMEKLNENIKILSSPWIQICNNFSPIIDYFPGTHNKLLKNVAFMKSYILEKVKEHQESMDMNNPQDFIDCFLMKMEKEKHNQPSEFTIESLENTAVDLFGAGTETTSTTLRYALLLLLKHPEVTAKVQEEIERVIGRNRSPCMQDRSHMPYTDAVVHEVQRYIDLLPTSLPHAVTCDIKFRNYLIPKGTTILISLTSVLHDNKEFPNPEMFDPHHFLDEGGNFKKSKYFMPFSAGKRICVGEALAGMELFLFLTSILQNFNLKSLVDPKNLDTTPVVNGFASVPPFYQLCFIPV | – | – | – | – | – | – | Km [20]: 0.19 µM; Vmax [20]: 1.1e-07 µmol/min

From ChEMBL document CHEMBL3525951, “Reevaluation of the microsomal metabolism of montelukast: major contribution by CYP2C8 at clinically relevant concentrations” (Drug Metab Dispos, 2011)
